SMILES strings stand for the structures. ≈ marks a conversion by molar mass, not a printed value.

Data on 10 molecules can be found in ChEMBL document CHEMBL1151002, “Potent, selective, water-soluble benzodiazepine-based CCKB receptor antagonists that contain lipophilic carboxylate surrogates” (Bioorg Med Chem Lett, 1995).

Series [1] has as its system Rattus norvegicus. Briefly: Compound was evaluated for its penetration into blood-brain barrier measured by its level in rat brain after an intravenous dose of 3 mg/kg after 30 min. The class given is functional, organism-based. Also noted: dose 3 mg/kg.
A short description of series [2]: Log D is the log of the ratio of concentrations in each phase obtained from partitioning between octanol and 100 mM KH2PO4 buffer at pH 7.4. Particulars: octanol/100 mM KH2PO4 buffer. The class given is physicochemical.
Series [3] deals with Rattus norvegicus. The experiment in a line: Compound was evaluated for its penetration into blood-brain barrier measured by its level in rat brain after an intravenous dose of 3 mg/kg after 10 min. In kind it is functional, organism-based. Also noted: dose 3 mg/kg.
For series [4], the system named is Rattus norvegicus. Briefly: Compound was evaluated for its penetration into blood-brain barrier measured by its level in rat brain after an intravenous dose of 3 mg/kg after 1 min. In kind it is functional, organism-based. More on the design: dose 3 mg/kg.
Series [5] can be described thus: Compound was evaluated for its solubility at a pH 7.4. The class given is ADME. Particulars: buffer.
Series [6] is described as follows: Oral bioavailability in rat. The class given is ADME, organism-based. The following applies: in vivo, read-out: Bioavailabiility.
The species entered for series [7] is Rattus norvegicus. The experiment in a line: In vitro antagonistic activity for single-cell firing in a slice preparation of the rat ventromedial hyphalamic nucleus. In kind it is functional.
The nature of series [8]: Solubility at a pH 7.4. The following applies: buffer, read-out: S. The class given is physicochemical.
A short description of series [9]: Ratio between CCKB and CCKA receptor binding affinity was measured by displacement of [125I]CCK from guinea pig cortical membranes and rat pancreatic tissues respectively. Background: Loss of bound radioactivity is the signal in a displacement assay; it reports binding, not function.

In general, logD refers to the decadic logarithm of the distribution of all forms, ionised or not, between an organic phase and buffer at a given pH. Consider `CN1C(=O)C(NC(=O)Nc2cccc(C(=O)NS(C)(=O)=O)c2)N=C(C2CCCCC2)c2ccccc21` (stereo not given), for which the Level with Rattus norvegicus [1] amounted to 91 ng/g; in the series on Rattus norvegicus [3], 344 ng/g; in the series with Rattus norvegicus [4], 836 ng/g. The pH-dependent lipophilicity (logD) in series [2] turned out to be 0.34. In series [5], this molecule returned a solubility of 1300 µg/mL (≈ 2540 µM).

One may read the Kb as the equilibrium dissociation constant of an antagonist, usually derived from a functional assay. A lower Kb goes with higher antagonist affinity. As for `CN1C(=O)C(NC(=O)Nc2cccc(S(=O)(=O)NC(=O)c3ccccc3)c2)N=C(C2CCCCC2)c2ccccc21` (stereo not given), the Level in the series with Rattus norvegicus [1] was 72 ng/g; with Rattus norvegicus [3], 120 ng/g; in the series with Rattus norvegicus [4], 222 ng/g. Also, the bioavailability in series [6] was found to be 14%. The Kb in the series listed under Rattus norvegicus [7] was 1.2 nM. The solubility in series [8] is 50 µg/mL (≈ 87.2 µM). In series [2], the logD is 1.78.

On to `CC(=O)NS(=O)(=O)c1cccc(NC(=O)NC2N=C(C3CCCCC3)c3ccccc3N(C)C2=O)c1` (stereo not given), for which the Selectivity in series [9] was 53. Besides, the solubility in [8] came to 260 µg/mL (≈ 508 µM). Moreover, the logD in series [2] is 0.72.

In the case of `CN1C(=O)[C@H](NC(=O)Nc2cccc(C(=O)NS(=O)(=O)c3ccccc3)c2)N=C(C2CCCCC2)c2ccccc21`, the Selectivity in [9] is over 8000. The solubility in series [8] was 370 µg/mL (≈ 645 µM).

`CN1C(=O)C(NC(=O)Nc2cccc(C(=O)O)c2)N=C(C2CCCCC2)c2ccccc21` (stereo not given): the Selectivity in series [9] is 2. Further, the solubility in series [8] came out at 1050 µg/mL (≈ 2420 µM). For the same molecule, the logD in series [2] was 0.89.

As for `CN1C(=O)C(NC(=O)Nc2cccc(C(=O)NS(=O)(=O)c3ccccc3)c2)N=C(C2CCCCC2)c2ccccc21` (stereo not given), the Selectivity in [9] turned out to be 19. Also, in [2], the logD is 1.42.

Turning to `CC(C)S(=O)(=O)NC(=O)c1cccc(NC(=O)N[C@@H]2N=C(C3CCCCC3)c3ccccc3N(C)C2=O)c1`, the solubility in series [8] is 1160 µg/mL (≈ 2150 µM).

As for `Cc1cccc(NC(=O)N[C@@H]2N=C(C3CCCCC3)c3ccccc3N(C)C2=O)c1`, the Selectivity in series [9] came to 6500. In series [8], the solubility was under 0.01 µg/mL. In series [2], the logD was over 4.

Turning to `Cc1ccccc1S(=O)(=O)NC(=O)c1cccc(NC(=O)N[C@@H]2N=C(C3CCCCC3)c3ccccc3N(C)C2=O)c1`, the solubility in series [8] was 410 µg/mL (≈ 698 µM). In addition, the logD in [2] came to 2.

In the case of `CC(C)S(=O)(=O)NC(=O)c1cccc(NC(=O)NC2N=C(C3CCCCC3)c3ccccc3N(C)C2=O)c1` (stereo not given), the solubility in series [8] turned out to be 740 µg/mL (≈ 1370 µM). Besides, the logD in series [2] was determined as 0.85.
